Measured values published in patent US20240199534A1 (Mitochondria Emotion, Inc., priority 2021, published 2024).
Like-named read-outs stand apart in the source and are kept apart here.

How the values were obtained:
[1] = In vivo pharmacokinetics IV and PO (Table 1A); design: species or system mouse; details: for Tmax: PO, mouse plasma
MFN2 = target: T1, MFN2 (Mus musculus, UniProt Q80U63); assay: Mitofusin activation (MFN activity), EC50; assay type: cell-based; details: stereoisomeric configurations of Compound 2
T1 sequence (Q80U63 1-757): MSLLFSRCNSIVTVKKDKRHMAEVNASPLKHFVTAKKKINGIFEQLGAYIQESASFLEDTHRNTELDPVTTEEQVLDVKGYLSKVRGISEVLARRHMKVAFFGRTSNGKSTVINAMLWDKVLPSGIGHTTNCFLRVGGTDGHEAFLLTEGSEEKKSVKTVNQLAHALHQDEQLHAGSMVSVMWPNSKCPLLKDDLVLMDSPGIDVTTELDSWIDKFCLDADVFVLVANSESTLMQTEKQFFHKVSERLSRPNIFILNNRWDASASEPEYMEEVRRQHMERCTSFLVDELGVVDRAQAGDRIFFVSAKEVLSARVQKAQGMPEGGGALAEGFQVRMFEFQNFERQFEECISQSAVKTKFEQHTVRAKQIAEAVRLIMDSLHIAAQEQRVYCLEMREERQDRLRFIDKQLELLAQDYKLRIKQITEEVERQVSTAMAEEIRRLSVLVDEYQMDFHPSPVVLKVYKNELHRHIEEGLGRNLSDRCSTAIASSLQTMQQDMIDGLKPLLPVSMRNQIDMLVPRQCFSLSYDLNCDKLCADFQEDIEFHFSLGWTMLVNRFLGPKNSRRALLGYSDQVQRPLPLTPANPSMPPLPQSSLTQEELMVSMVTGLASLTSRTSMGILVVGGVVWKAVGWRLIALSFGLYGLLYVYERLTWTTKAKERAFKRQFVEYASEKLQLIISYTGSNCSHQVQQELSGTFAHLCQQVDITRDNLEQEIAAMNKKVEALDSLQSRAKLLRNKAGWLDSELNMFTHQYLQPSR
Description: Mitochondria were then stained with MitoTracker Orange (200 nM; M7510; Invitrogen, Carlsbad, CA, USA). Nuclei were stained with Hoescht (10 μg/ml; Invitrogen, Thermo Fisher Scientific Cat: #H3570). […] Response curves were interpolated using the sigmoidal model using Prism 8 software.
Testing details for the MFN activity and PAMPA assay are provided in U.S. Patent Applications 2020/034566 and 2020/0345669, incorporated herein by reference.

Q: With `O=C(CCCCCc1ccccc1)N[C@H]1CC[C@H](O)CC1` [Compound 1, N-(trans-4-hydroxycyclohexyl)-6-phenylhexanamide, reference compound] as the compound, how does the “Tmax” value ([1]; 50 mg/kg) read?
A: 30 min

Q: Which Vd ([1]; male, CD-1, mouse, plasma, iv, 10 mg/kg, read-out: Vdss) does the source give for `O=C(N[C@H]1CC[C@H](O)CC1)C1CC1CCCc1ccccc1` (mixture of isomers) [Compound 2, N-((1r,4r)-4-hydroxycyclohexyl)-2-(3-phenylpropyl)cyclopropane-1-carboxamide] here?
A: 0.6 L/kg

Q: What about the bioavailability ([1]; male, CD-1, mouse, plasma, po, 50 mg/kg) of the same compound?
A: 59%

Q: What about the MRT ([1]; male, CD-1, mouse, plasma, single 50 mg/kg oral dose, read-out: mean tissue residence time (MRT)) of the same compound?
A: 215 min

Q: What about the Tmax ([1]; male, CD-1, 50 mg/kg, read-out: Tmax) of the same compound?
A: 30 min

Q: Which “activity toward promoting mitofusin activation” value (MFN2) does the source give for `O=C(N[C@H]1CC[C@H](O)CC1)[C@@H]1C[C@H]1CCCc1ccccc1` [Compound 2A, (1R,2R)-N-((1r,4R)-4-hydroxycyclohexyl)-2-(3-phenylpropyl)cyclopropane-1-carboxamide] here?
A: active toward promoting mitofusin activation
